Key:
[1] = test system: HCT116 MTAP null cells; assay: HCT116 MTAP null cell proliferation / viability (CellTiter-Glo, 6 days); assay type: cell-based; conditions: HCT116-MTAP null, 144 h, HCT116 MTAP null cells, 6 days, CellTiter-Glo; read-out: HCT-116 MTAP null IC50
Method in brief: (§1)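 IC50 values derive from sigmoidal dose-response fits, some with Hill slope fixed at −1 and top constrained to 100%, others from 4-parameter logistic models. They reflect CellTiter-Glo viability after 6 days of compound exposure at up to 10 or 50 μM.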

[2] = test system: HCT116 WT cells; assay: HCT116 WT cell proliferation / viability (CellTiter-Glo, 6 days); assay type: cell-based; conditions: Homo sapiens, HCT-116, 144 h, HCT116 WT cells, 6 days, CellTiter-Glo; read-out: HCT-116 WT IC50
Method in brief: as §1

Row | SMILES | IC50 [1] | IC50 [2]
1 | C[C@H]1OCc2c1c(N)nc1ccc(C(=O)N(C)Cc3ccc(C(F)(F)F)nn3)cc21 [Example 485, (3R)-4-amino-N,3-dimethyl-N-((6-(trifluoromethyl)-3-pyridazinyl)methyl)-1,3-dihydrofuro[3,4-c]quinoline-8-carboxamide] | 365 nM | 32100 nM
2 | Nc1nc2cnc(C(=O)N(Cc3ccc(C(F)(F)F)cn3)CC(F)(F)F)cc2c2c1COC2 [Example 486, 4-amino-N-(2,2,2-trifluoroethyl)-N-((5-(trifluoromethyl)-2-pyridinyl)methyl)-1,3-dihydrofuro[3,4-c][1,7]naphthyridine-8-carboxamide] | 445 nM | 17500 nM
3 | C[C@H]1OCc2c1c(N)nc1ccc(C(=O)N(Cc3ccc(C(F)(F)F)cn3)C3CCOCC3)cc21 [Example 489, (3R)-4-amino-3-methyl-N-(tetrahydro-2H-pyran-4-yl)-N-((5-(trifluoromethyl)-2-pyridinyl)methyl)-1,3-dihydrofuro[3,4-c]quinoline-8-carboxamide] | 276 nM | 5210 nM
4 | Cn1cc(N(Cc2ccc(C(F)F)cn2)C(=O)c2cc3c4c(c(N)nc3cn2)CCC4)cn1 [Example 493, 6-amino-N-((5-(difluoromethyl)-2-pyridinyl)methyl)-N-(1-methyl-1H-pyrazol-4-yl)-8,9-dihydro-7H-cyclopenta[c][1,7]naphthyridine-2-carboxamide] | 124 nM | 1160 nM
5 | Cn1ncc2c3cc(C(=O)N(Cc4ccc(C(F)(F)F)cn4)C4(C)CC4)ccc3nc(N)c21 [Example 494, 4-amino-3-methyl-N-(1-methylcyclopropyl)-N-((5-(trifluoromethyl)-2-pyridinyl)methyl)-3H-pyrazolo[3,4-c]quinoline-8-carboxamide] | 282 nM | 9070 nM
6 | CC(C)N(Cc1cnc(C(F)(F)F)cn1)C(=O)c1cc2c3c(c(N)nc2cc1F)COC3 [Example 496, 4-amino-7-fluoro-N-(2-propanyl)-N-((5-(trifluoromethyl)-2-pyrazinyl)methyl)-1,3-dihydrofuro[3,4-c]quinoline-8-carboxamide] | 1270 nM | 2240 nM
7 | CCN(Cc1cnc(C(F)(F)F)cn1)C(=O)c1cc2c3c(c(N)nc2cc1F)COC3 [Example 497, 4-amino-N-ethyl-7-fluoro-N-((5-(trifluoromethyl)-2-pyrazinyl)methyl)-1,3-dihydrofuro[3,4-c]quinoline-8-carboxamide] | 250 nM | 3520 nM
8 | CCN(Cc1cnc(C(F)(F)F)cn1)C(=O)c1cc2c3c(c(N)nc2cc1Cl)COC3 [Example 498, 4-amino-7-chloro-N-ethyl-N-((5-(trifluoromethyl)-2-pyrazinyl)methyl)-1,3-dihydrofuro[3,4-c]quinoline-8-carboxamide] | 266 nM | 12700 nM
9 | CC(C)N(Cc1cnc(C(F)(F)F)cn1)C(=O)c1cc2c3c(c(N)nc2cc1Cl)COC3 [Example 499, 4-amino-7-chloro-N-(2-propanyl)-N-((5-(trifluoromethyl)-2-pyrazinyl)methyl)-1,3-dihydrofuro[3,4-c]quinoline-8-carboxamide] | 164 nM | 4140 nM
10 | CCN(Cc1cnc(C(F)(F)F)cn1)C(=O)c1ccc2nc(N)c3c(c2c1)CO[C@@H]3C [Example 500, (3R)-4-amino-N-ethyl-3-methyl-N-((5-(trifluoromethyl)-2-pyrazinyl)methyl)-1,3-dihydrofuro[3,4-c]quinoline-8-carboxamide] | 595 nM | 32500 nM
11 | COc1cc2nc(N)c3c(c2cc1C(=O)N(C)Cc1ccc(C(F)(F)F)cn1)COC3 [Example 502, 4-amino-7-methoxy-N-methyl-N-((5-(trifluoromethyl)-2-pyridinyl)methyl)-1,3-dihydrofuro[3,4-c]quinoline-8-carboxamide] | 3930 nM | 47300 nM
12 | CN(Cc1ccc(S(F)(F)(F)(F)F)cc1)C(=O)c1cc2c3c(c(N)nc2cn1)COC3 [Example 511, 4-amino-N-methyl-N-(4-(pentafluoro-lambda~6~- sulfanyl)benzyl)-1,3-dihydrofuro[3,4-c][1,7]naphthyridine-8-carboxamide] | 122 nM | 4920 nM

Compounds with a lower IC50 [1], results first:

Row | IC50 [1] | IC50 [2] | SMILES
13 | 87 nM | 3480 nM | Nc1nc2cc(Cl)c(C(=O)N(Cc3ccc(C(F)(F)F)nn3)C3CC3)cc2c2c1COC2 [Example 490, 4-amino-7-chloro-N-cyclopropyl-N-((6-(trifluoromethyl)-3-pyridazinyl)methyl)-1,3-dihydrofuro[3,4-c]quinoline-8-carboxamide]
14 | 79 nM | 6360 nM | Cn1cc(N(Cc2ccc(C(F)(F)F)cn2)C(=O)c2ccc3nc(N)c4c(cnn4C)c3c2)cn1 [Example 495, 4-amino-3-methyl-N-(1-methyl-1H-pyrazol-4-yl)-N-((5-(trifluoromethyl)-2-pyridinyl)methyl)-3H-pyrazolo[3,4-c]quinoline-8-carboxamide]
15 | 71 nM | 3250 nM | C[C@H]1OCc2c1c(N)nc1ccc(C(=O)N(C)Cc3ccc(S(F)(F)(F)(F)F)cc3)cc21 [Example 514, (3R)-4-amino-N,3-dimethyl-N-(4-(pentafluoro-lambda~6~- sulfanyl)benzyl)-1,3-dihydrofuro[3,4-c]quinoline-8-carboxamide]
16 | 65 nM | 2660 nM | CN(Cc1ccc(S(F)(F)(F)(F)F)cc1)C(=O)c1ccc2nc(N)c3c(c2c1)COC3 [Example 510, 4-amino-N-methyl-N-(4-(pentafluoro-lambda~6~- sulfanyl)benzyl)-1,3-dihydrofuro[3,4-c]quinoline-8-carboxamide]
17 | 60 nM | 2840 nM | C[C@H](c1ccc(C(F)(F)F)cn1)N(C(=O)c1cc2c(cc1F)nc(N)c1c2cnn1C)C1CC1 [Example 508, 4-amino-N-cyclopropyl-7-fluoro-3-methyl-N-((1R)-1-(5-(trifluoromethyl)-2-pyridinyl)ethyl)-3H-pyrazolo[3,4-c]quinoline-8-carboxamide]
18 | 56 nM | 2000 nM | Cc1cc2nc(N)c3c(c2cc1C(=O)N(C)Cc1ccc(C(F)(F)F)cn1)COC3 [Example 503, 4-amino-N,7-dimethyl-N-((5-(trifluoromethyl)-2-pyridinyl)methyl)-1,3-dihydrofuro[3,4-c]quinoline-8-carboxamide]
19 | 56 nM | 1850 nM | Cn1ncc2c3cc(C(=O)N(Cc4ccc(C(F)(F)F)nn4)C4CCC4)c(F)cc3nc(N)c21 [Example 504, 4-amino-N-cyclobutyl-7-fluoro-3-methyl-N-((6-(trifluoromethyl)-3-pyridazinyl)methyl)-3H-pyrazolo[3,4-c]quinoline-8-carboxamide]
20 | 48 nM | 622 nM | Cn1cc(N(Cc2ccc(C(F)(F)F)cn2)C(=O)c2cc3c4c(c(N)nc3cn2)CCC4)cn1 [Example 492, 6-amino-N-(1-methyl-1H-pyrazol-4-yl)-N-((5-(trifluoromethyl)-2-pyridinyl)methyl)-8,9-dihydro-7H-cyclopenta[c][1,7]naphthyridine-2-carboxamide]
21 | 46 nM | 1200 nM | Nc1nc2cc(F)c(C(=O)N(Cc3ccc(C(F)(F)F)nn3)C3CCC3)cc2c2c1COC2 [Example 501, 4-amino-N-cyclobutyl-7-fluoro-N-((6-(trifluoromethyl)-3-pyridazinyl)methyl)-1,3-dihydrofuro[3,4-c]quinoline-8-carboxamide]
22 | 40 nM | 878 nM | Nc1nc2cc(F)c(C(=O)N(Cc3ccc(OC(F)F)nn3)C3CCC3)cc2c2c1COC2 [Example 509, 4-amino-N-cyclobutyl-N-((6-(difluoromethoxy)-3-pyridazinyl)methyl)-7-fluoro-1,3-dihydrofuro[3,4-c]quinoline-8-carboxamide]
23 | 38 nM | 1380 nM | CN(Cc1ccc(S(F)(F)(F)(F)F)cc1)C(=O)c1cc2c3c(c(N)nc2cc1F)COC3 [Example 512, 4-amino-7-fluoro-N-methyl-N-(4-(pentafluoro-lambda~6~- sulfanyl)benzyl)-1,3-dihydrofuro[3,4-c]quinoline-8-carboxamide]
24 | 25 nM | 373 nM | Cn1cc(N(Cc2ccc(C(F)(F)F)cn2)C(=O)c2cc3c(cn2)nc(N)c2cnn(C)c23)cn1 [Example 507, 4-amino-1-methyl-N-(1-methyl-1H-pyrazol-4-yl)-N-((5-(trifluoromethyl)-2-pyridinyl)methyl)-1H-pyrazolo[4,3-c][1,7]naphthyridine-8-carboxamide]
25 | 22 nM | 662 nM | Nc1nc2cc(Cl)c(C(=O)N(Cc3ccc(C(F)(F)F)nn3)C3CCC3)cc2c2c1COC2 [Example 505, 4-amino-7-chloro-N-cyclobutyl-N-((6-(trifluoromethyl)-3-pyridazinyl)methyl)-1,3-dihydrofuro[3,4-c]quinoline-8-carboxamide]
26 | 20 nM | 402 nM | CC(C)N(Cc1ccc(C(F)(F)F)cn1)C(=O)c1cc2c3c(c(N)nc2cc1Cl)COC3 [Example 484, 4-amino-7-chloro-N-(2-propanyl)-N-((5-(trifluoromethyl)-2-pyridinyl)methyl)-1,3-dihydrofuro[3,4-c]quinoline-8-carboxamide]
27 | 19 nM | 848 nM | CN(Cc1ccc(S(F)(F)(F)(F)F)cc1)C(=O)c1cc2c3c(c(N)nc2cc1Cl)COC3 [Example 513, 4-amino-7-chloro-N-methyl-N-(4-(pentafluoro-lambda~6~- sulfanyl)benzyl)-1,3-dihydrofuro[3,4-c]quinoline-8-carboxamide]
28 | 9 nM | 369 nM | Cn1cc(N(Cc2ccc(C(F)(F)F)cn2)C(=O)c2cc3c(cc2F)nc(N)c2c3cnn2C)cn1 [Example 506, 4-amino-7-fluoro-3-methyl-N-(1-methyl-1H-pyrazol-4-yl)-N-((5-(trifluoromethyl)-2-pyridinyl)methyl)-3H-pyrazolo[3,4-c]quinoline-8-carboxamide]
